Test results published in patent US20260356851A1, “TRICYCLIC COMPOUNDS AND USES THEREOF” (HUTCHMED LIMITED, priority 2023, published 2026).
pIC50: −log10 of the molar value. Where two headings read alike, the source gives them in different places.

Columns and labels:
Format in all cases: cell-based
[1] = target: T1, pERK1/2 (Thr202/Tyr204), NCI-1H441 (KRAS G12V) (Homo sapiens, UniProt P01116, G12V); assay: Assay of intracellular pERK1/2 (Thr202/Tyr204) phosphorylation in NCI-H441 cells (KRAS G12V)
T1 construct: pERK1/2 HTRF read-out
T1 sequence (P01116 1-188 isoform P01116-2 G12V): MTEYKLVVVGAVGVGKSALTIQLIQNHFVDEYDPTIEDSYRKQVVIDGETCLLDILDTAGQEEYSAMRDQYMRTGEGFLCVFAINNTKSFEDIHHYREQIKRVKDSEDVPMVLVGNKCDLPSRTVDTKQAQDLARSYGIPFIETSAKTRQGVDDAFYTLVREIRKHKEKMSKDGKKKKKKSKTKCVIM
Procedure, shortened: (§1)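 HTRF detection of Thr202/Tyr204-phosphorylated ERK1/2 (665/615 nm ratio) in lysates from cells treated 2 days with serially 3-fold diluted compound.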

[2] = target: T2, pERK1/2 (Thr202/Tyr204), NCI-1H358 (KRAS G12C) (Homo sapiens, UniProt P01116, G12C); assay: Assay of intracellular pERK1/2 (Thr202/Tyr204) phosphorylation in NCI-H358 cells (KRAS G12C)
T2 construct: pERK1/2 HTRF read-out
T2 sequence (P01116 1-188 isoform P01116-2 G12C): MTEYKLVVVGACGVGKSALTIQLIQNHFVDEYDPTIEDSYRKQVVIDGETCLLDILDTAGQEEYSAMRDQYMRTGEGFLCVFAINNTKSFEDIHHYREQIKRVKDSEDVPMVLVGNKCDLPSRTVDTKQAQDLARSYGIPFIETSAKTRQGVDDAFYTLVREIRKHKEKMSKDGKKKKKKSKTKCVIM
Procedure, shortened: as §1

[3] = target: T3, pERK1/2 (Thr202/Tyr204), PANC-1 (KRAS G121D) (Homo sapiens, UniProt P01116, G12D); assay: Assay of intracellular pERK1/2 (Thr202/Tyr204) phosphorylation in PANC-1 cells (KRAS G12D)
T3 construct: pERK1/2 HTRF read-out
T3 sequence (P01116 1-188 isoform P01116-2 G12D): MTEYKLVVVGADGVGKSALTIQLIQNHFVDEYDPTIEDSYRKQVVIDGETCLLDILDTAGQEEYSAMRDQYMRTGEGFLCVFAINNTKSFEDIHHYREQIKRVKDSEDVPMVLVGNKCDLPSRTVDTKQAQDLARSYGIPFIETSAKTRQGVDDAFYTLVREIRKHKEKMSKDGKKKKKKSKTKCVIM
Procedure, shortened: as §1

[4] = pERK1/2, 2 days, read-out: NCI-H441 (KRAS G12V) IC50
[5] = pERK1/2, 2 days, read-out: NCI-H358 (KRAS G12C) IC50
[6] = pERK1/2, 2 days, read-out: PANC-1 (KRAS G12D) IC50
[7] = read-out: NCI-H441 (KRAS G12V) IC50, pERK1/2, 2 days
[8] = read-out: NCI-H358 (KRAS G12C) IC50, pERK1/2, 2 days
[9] = read-out: PANC-1 (KRAS G12D) IC50, pERK1/2, 2 days

Row | SMILES | pIC50 [1, 4] | pIC50 [2, 5] | pIC50 [3, 6] | pIC50 [1, 7] | pIC50 [2, 8] | pIC50 [3, 9]
1 | Cc1nc(N)cc(-c2nc3c4c(nc(OC[C@@]56CCCN5C[C@H](F)C6)nc4c2F)N(C(C)c2cccnc2N)CCO3)c1C(F)(F)F (stereo partly drawn) [Compound 83] | 8.52 | 9.22 | 7.54 | – | – | –
2 | CCNC(=O)Oc1cc(-c2nc3c4c(nc(OC[C@@]56CCCN5C[C@H](F)C6)nc4c2F)N(C(C)c2cccnc2N)[C@@H](C)CO3)c2c(CC)c(F)ccc2c1 (stereo partly drawn) [Compound 294] | – | – | – | 8.70 | 9.10 | 9.30
3 | CNc1ncccc1C(C)N1CCOc2nc(-c3cc(N)c(F)c(C)c3C(F)(F)F)c(F)c3nc(OC[C@@]45CCCN4C[C@H](F)C5)nc1c23 (single isomer, unassigned) [Compound 265, 3-((R or S)-1-(5-(5-amino-4-fluoro-3-methyl-2-(trifluoromethyl)phenyl)-4-fluoro-2-(((2R,7aS)-2-fluorotetrahydro-1H-pyrrolizin-7a(5H)-yl)methoxy)-8,9-dihydro-10H-7-oxa-1,3,6,10-tetraazacyclohepta[de]naphthalen-10-yl)ethyl)-N-methylpyridin-2-amine] | < 7.00 | < 7.00 | < 7.00 | – | – | –
4 | Cc1c(F)c(N)cc(-c2nc3c4c(nc(OC[C@@]56CCCN5C[C@H](F)C6)nc4c2F)N(Cc2cccnc2N)CCO3)c1C(F)(F)F [Compound 180] | 8.22 | 9.00 | 7.46 | – | – | –
5 | CC(c1cccnc1N)N1CCOc2nc(-c3cc(O)cc(Cl)c3C3CC3)c(F)c3nc(OC[C@@H]4CCCN4C)nc1c23 (single isomer, unassigned) [Compound 32, 3-(10-((R or S)-1-(2-aminopyridin-3-yl)ethyl)-4-fluoro-2-(((S)-1-methylpyrrolidin-2-yl)methoxy)-9,10-dihydro-8H-7-oxa-1,3,6,10-tetraazacyclohepta[de]naphthalen-5-yl)-5-chloro-4-cyclopropylphenol] | 8.22 | 8.52 | 7.30 | – | – | –
6 | CCc1c(F)ccc2cc(OC(=O)N3CCOCC3)cc(-c3nc4c5c(nc(OC[C@@]67CCCN6C[C@H](F)C7)nc5c3F)N(C(C)c3cccnc3N)[C@@H](C)CO4)c12 (stereo partly drawn) [Compound 307] | – | – | – | 7.64 | 7.89 | 7.80
7 | [2H]C1([2H])CC[C@@]2(C([2H])([2H])Oc3nc4c5c(nc(-c6cc(N)ccc6C(F)(F)F)c(F)c5n3)OCCN4C(C)c3cccnc3N)C[C@@H](F)CN12 (stereo partly drawn) [Compound 129] | 8.70 | 9.05 | 7.59 | – | – | –
8 | [2H]C1([2H])Oc2nc(-c3cc(N)c(F)c(Cl)c3C(F)(F)F)c(F)c3nc(OC[C@@H]4C[C@@H](F)CN4C)nc(c23)N(C(C)c2cccnc2N)C1([2H])[2H] (single isomer, unassigned) [Compound 209, 3-((R or S)-1-(5-(5-amino-3-chloro-4-fluoro-2-(trifluoromethyl)phenyl)-4-fluoro-2-(((2S,4R)-4-fluoro-1-methylpyrrolidin-2-yl)methoxy)-8,9-dihydro-10H-7-oxa-1,3,6,10-tetraazacyclohepta[de]naphthalen-10-yl-8,8,9,9-d4)ethyl)pyridin-2-amine] | 7.35 | 7.89 | < 7.00 | – | – | –
9 | [2H]C([2H])(Oc1nc2c3c(nc(-c4cc(N)ccc4C(F)(F)F)c(F)c3n1)OCCN2C(C)c1cccnc1N)[C@@H]1C[C@@H](F)CN1C([2H])([2H])[2H] (stereo partly drawn) [Compound 126] | 7.51 | 8.15 | < 7.00 | – | – | –
10 | CCN1CCC[C@H]1COc1nc2c3c(nc(-c4cc(N)cc(C)c4C(F)(F)F)c(F)c3n1)OCCN2C(C)c1cccnc1N (stereo partly drawn) [Compound 114] | 9.05 | 9.22 | 7.72 | – | – | –
11 | CC(c1cccnc1N)N1CCOc2nc(-c3cc(N)c(F)c(Cl)c3C(F)(F)F)c(F)c3nc(OCC45CC(F)CN4CC(F)C5)nc1c23 (single isomer, unassigned; diastereomer 2) [Compound 246, (*)3-(1-(5-(5-amino-3-chloro-4-fluoro-2-(trifluoromethyl)phenyl)-2-(((2R or 2S,6R or 6S)-2,6-difluorotetrahydro-1H-pyrrolizin-7a(5H)-yl)methoxy)-4-fluoro-8,9-dihydro-10H-7-oxa-1,3,6,10-tetraazacyclohepta[de]naphthalen-10-yl)ethyl)pyridin-2-amine (diastereomer 2)] | 8.70 | 9.40 | 7.20 | – | – | –
12 | CC(c1cccnc1N)N1CCOc2nc(-c3cc(N)cc(Cl)c3C(F)(F)F)c(F)c3nc(OC[C@@H]4CCCN4C)nc1c23 (single isomer, unassigned) [Compound 99, 3-((R or S)-1-(5-(5-amino-3-chloro-2-(trifluoromethyl)phenyl)-4-fluoro-2-(((S)-1-methylpyrrolidin-2-yl)methoxy)-8,9-dihydro-10H-7-oxa-1,3,6,10-tetraazacyclohepta[de]naphthalen-10-yl)ethyl)pyridin-2-amine] | 7.48 | 7.57 | < 7.00 | – | – | –

Continued, in another order:

Row | pIC50 [1, 4] | pIC50 [2, 5] | pIC50 [3, 6] | SMILES | pIC50 [1, 7] | pIC50 [2, 8] | pIC50 [3, 9]
13 | 7.96 | 8.52 | 7.24 | CC(c1cccnc1N)N1c2nc(OC[C@@]34CCCN3C[C@H](F)C4)nc3c(F)c(-c4cc(F)cc5c4C(F)(F)CC5)nc(c23)OC[C@@H]1C (stereo partly drawn) [Compound 371] | – | – | –
14 | 6.51 | 6.95 | 6.00 | CC(c1cccnc1N)N1c2nc(OC[C@@]34CCCN3C[C@H](F)C4)nc3cc(-c4c5ccccc5cc5[nH]nc(C6CC6)c45)nc(c23)OC[C@@H]1C (stereo partly drawn) [Compound 403] | – | – | –
15 | 9.00 | 9.30 | 9.40 | C#Cc1c(F)ccc2cc(O)cc(-c3nc4c5c(nc(OC[C@@]67CCCN6C[C@H](F)C7)nc5c3F)N(C(C)c3cccnc3N)[C@@H](C)CO4)c12 (single isomer, unassigned) [Compound 273, 4-((S)-10-((R or S)-1-(2-aminopyridin-3-yl)ethyl)-4-fluoro-2-(((2R,7aS)-2-fluorotetrahydro-1H-pyrrolizin-7a(5H)-yl)methoxy)-9-methyl-9,10-dihydro-8H-7-oxa-1,3,6,10-tetraazacyclohepta[de]naphthalen-5-yl)-5-ethynyl-6-fluoronaphthalen-2-ol] | – | – | –
16 | 9.10 | 9.40 | 9.40 | CC(c1cccnc1N)N1c2nc(OC[C@@]34CCCN3C[C@H](F)C4)nc3c(F)c(-c4cc(O)cc5ccc(F)c(F)c45)nc(c23)OC[C@@H]1C (single isomer, unassigned) [Compound 275, 4-((S)-10-((R or S)-1-(2-aminopyridin-3-yl)ethyl)-4-fluoro-2-(((2R,7aS)-2-fluorotetrahydro-1H-pyrrolizin-7a(5H)-yl)methoxy)-9-methyl-9,10-dihydro-8H-7-oxa-1,3,6,10-tetraazacyclohepta[de]naphthalen-5-yl)-5,6-difluoronaphthalen-2-ol] | – | – | –
17 | 9.00 | > 9.34 | 8.22 | Cc1c(C(F)(F)F)c(-c2nc3c4c(nc(OCC5(CN(C)C)CC5)nc4c2F)N(C(C)c2cccnc2N)[C@@H](C)CO3)c2cn[nH]c2c1F (stereo partly drawn) [Compound 396] | – | – | –
